Experiments:
Experiment in all cases: relative viability (nuclei count vs DMSO), 5 days (fraction); higher = more cells survive
Vorinostat + Tozasertib = compound: O=C(CCCCCCC(=O)Nc1ccccc1)NO [Vorinostat] + Cc1cc(Nc2cc(N3CCN(C)CC3)nc(Sc3ccc(NC(=O)C4CC4)cc3)n2)n[nH]1 [Tozasertib] (partner 0.1 µM)
Method in brief: (§1)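 Lung cancer cell lines were seeded in 1536-well plates and dosed by pin tool the next day, with either a single drug or a fixed anchor-drug dose combined with five library-drug doses (not always all listed) spaced in √10 steps. Five days later, one step fixed the cells and stained their nuclei (final 0.05% Triton X-100, 1% formaldehyde, 1 ug/ml Hoechst), and nuclei were counted on 4× images. Relative viability is the nuclei count in treated wells divided by the count in vehicle wells, and each value is the median of duplicate plates.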

Vorinostat + Foretinib = compound: O=C(CCCCCCC(=O)Nc1ccccc1)NO [Vorinostat] + COc1cc2c(Oc3ccc(NC(=O)C4(C(=O)Nc5ccc(F)cc5)CC4)cc3F)ccnc2cc1OCCCN1CCOCC1 [Foretinib] (partner 0.25 µM)
Method in brief: as §1

Vorinostat + Pemetrexed = compound: O=C(CCCCCCC(=O)Nc1ccccc1)NO [Vorinostat] + Nc1nc2[nH]cc(CCc3ccc(C(=O)N[C@@H](CCC(=O)O)C(=O)O)cc3)c2c(=O)[nH]1 [Pemetrexed] (partner 0.2 µM)
Method in brief: as §1

Vorinostat + Trametinib = compound: O=C(CCCCCCC(=O)Nc1ccccc1)NO [Vorinostat] + CC(=O)Nc1cccc(-n2c(=O)n(C3CC3)c(=O)c3c(Nc4ccc(I)cc4F)n(C)c(=O)c(C)c32)c1 [Trametinib] (partner 0.02 µM)
Method in brief: as §1

Vorinostat + Bortezomib = compound: O=C(CCCCCCC(=O)Nc1ccccc1)NO [Vorinostat] + CC(C)C[C@H](NC(=O)[C@H](Cc1ccccc1)NC(=O)c1cnccn1)B(O)O [Bortezomib] (partner 0.002 µM)
Method in brief: as §1

Cell Line	relative viability (Vorinostat + Tozasertib; first compound 0.253 µM)	relative viability (Vorinostat + Tozasertib; first compound 0.8 µM)	relative viability (Vorinostat + Tozasertib; first compound 2.53 µM)	relative viability (Vorinostat + Tozasertib; first compound 8 µM)	relative viability (Vorinostat + Foretinib; first compound 0.253 µM)	relative viability (Vorinostat + Foretinib; first compound 0.8 µM)	relative viability (Vorinostat + Foretinib; first compound 2.53 µM)	relative viability (Vorinostat + Foretinib; first compound 8 µM)	relative viability (Vorinostat + Pemetrexed; first compound 0.253 µM)	relative viability (Vorinostat + Pemetrexed; first compound 0.8 µM)	relative viability (Vorinostat + Pemetrexed; first compound 2.53 µM)	relative viability (Vorinostat + Pemetrexed; first compound 8 µM)	relative viability (Vorinostat + Trametinib; first compound 0.253 µM)	relative viability (Vorinostat + Trametinib; first compound 0.8 µM)	relative viability (Vorinostat + Trametinib; first compound 2.53 µM)	relative viability (Vorinostat + Trametinib; first compound 8 µM)	relative viability (Vorinostat + Bortezomib; first compound 0.253 µM)	relative viability (Vorinostat + Bortezomib; first compound 0.8 µM)	relative viability (Vorinostat + Bortezomib; first compound 2.53 µM)	relative viability (Vorinostat + Bortezomib; first compound 8 µM)
NCI-H1666	0.499	0.346	0.307	0.259	0.982	0.906	0.387	0.349	0.849	0.887	0.651	0.434	0.894	0.805	0.561	0.439	0.798	0.461	0.251	0.189
SK-MES-1	0.86	0.662	0.235	0.136	1.14	1.04	0.778	0.249	1.08	1.07	0.553	0.207	0.728	0.71	0.454	0.239				
ABC-1	0.203	0.198	0.18	0.112	1.07	0.834	0.358	0.102									0.297	0.281	0.175	0.194
NCI-H358	0.128	0.11	0.0949	0.0726	1.01	0.649	0.154	0.0783	0.155	0.155	0.152	0.0859	0.171	0.149	0.0954	0.0859				
NCI-H1793	0.316	0.256	0.179	0.125	1.03	0.679	0.257	0.204	1.26	0.869	0.654	0.175	0.383	0.34	0.3	0.182				
NCI-H1792									0.795	0.524	0.163	0.0208	0.292	0.257	0.145	0.0464	1.01	0.902	0.637	0.0799
NCI-H1395	1.02	0.682	0.456	0.324	1.09	1.09	0.822	0.427	0.733	0.746	0.533	0.321	1.23	0.964	0.777	0.412				
A549					0.929	0.478	0.0393	0.0151												
NCI-H1703					0.418	0.599	0.632	0.277									0.262	0.23	0.156	0.133
NCI-H2170	0.729	0.462	0.147	0.155	0.982	1.04	0.675	0.526	0.249	0.242	0.222	0.114	0.926	0.921	0.578	0.108				
IA-LM					1.17	1.14	0.342	0.039									1.03	0.547	0.161	0.0471
NCI-H1944	0.239	0.221	0.132	0.0956	0.832	0.594	0.321	0.142	0.585	0.448	0.311	0.135	0.481	0.424	0.292	0.0999				

Reference: the supplement of paper PMC10307832
